Values after ≈ are worked out from the molar mass of the structure shown. Values joined by “and” are separate entries in the source; they are usually repeats but may differ in a detail not shown here. Equal values may be shown once.
Assays:
[1] = system: P. aeruginosa PAO1 biofilms; experiment: Post-antimicrobial effect and metabolic activity of biofilms after treatment (FIG. 9, 10); type: cell-based, Pseudomonas aeruginosa; conditions: 24 h following treatment of the biofilms
Protocol: FIG. 9: is a graph showing the post-antimicrobial effect of cysteamine (NM001) in combination with Tobramycin versus P. aeruginosa PAO1 biofilms. […] The PAE was determined by transfer of 10 μl biofilm cultures into 90 μl sterile MH broth in triplicate in microtitre plates following treatment. Bacterial growth was followed on a BioTek plate reader for 24 h at 37° C. Microbial metabolic activity following treatment of the biofilms was determined using the same method as for PAE determination and adding 10% (v/v) of a fluorescent cell viability indicator, resazurin (Alamar Blue, Serotec), which detected microbial metabolic activity growth by increase in fluorescence. Fluorescence was measured over 24 h at 37° C. using a BioTek Synergy HT microplate reader (BioTek, Winooski, USA) at 530/590 nm.

[2] = system: Pseudomonas aeruginosa cells; experiment: Tobramycin alone and with cysteamine in non-mucous and mucous environment (FIG. 3); type: cell-based; conditions: mucous environment (NaCl and/or mucin)
Text: FIG. 3: provides a comparison of the activity of Tobramycin alone and when in combination with cysteamine (NM001) against Pseudomonas aeruginosa cells cultured in a non-mucous environment and when cultured in a mucous environment replicating that found within the CF lung (in the presence of NaCl and/or mucin).

[3] = system: Pseudomonas aeruginosa Pa57388D; experiment: FIC index of combinations with conventional antibiotics, strain Pa57388D; type: cell-based; conditions: strain Pa57388D (Col^R, Gent^R), listed as Cysteamine (NM001)
Protocol: (§1) The bacterial inoculum was established by the dilution method from actively-growing cultures in Mueller-Hinton (MH) broth, standardized with 0.5 McFarland turbidity standard as described in the CLSI method M26-A.
(§2) Both the bacterial inoculum and the antimicrobial agents, including the compounds structurally related to cysteamine, were added simultaneously to the plates. The plates were incubated at 37° C. for 24 h and the optical density was read at 625 nm on a microtitre plate reader (BioTek Powerwave XS, Winooski, USA). The MIC was obtained as the lowest concentration of antimicrobial showing total inhibition of bacterial growth.
(§3) The FIC corresponds to an interaction coefficient indicating whether the combination of antimicrobial agents is synergistic, additive, antagonist or neutral. The FIC is determined by comparing the activity of an agent in combination (MIC of agent A+agent B) with the activity of the agent alone (MIC of agent A or agent B) as follow (Singh et al., 2000): FIC=MICA[combination]/MICA[alone]+MICB[combination]/MICB[alone]
(§4) Additive combinations of two antimicrobial agents are indicated by a FIC index of 1, whereas a FIC index<1 indicates synergistic combinations. Neutral combinations would give a FIC between 1 and 4, a FIC index higher than 4 indicates antagonist effects between the two antimicrobial agents.
(§5) The FIC was also calculated to assess the interaction of two antimicrobial agents in combination against bacterial samples.

[4] = system: 4 P. aeruginosa (PAO1, ATCC27853, DSMZ1128 and DSMZ1299) and 2 B. cepacia complex strains (NCTC10743 and NCTC10744); experiment: microbe, parasite or virus in culture; type: cell-based, Pseudomonas aeruginosa; Burkholderia cepacia complex; conditions: Pseudomonas aeruginosa, read-out: MIC100
Text: The complex pathophysiology of CF is characterized by airway obstruction caused by abnormal mucus secretion and infection, with 60-80% of patients being chronically infected with the biofilm-forming bacteria Pseudomonas aeruginosa (George et al., 2009). With a prevalence of up to 10% in adult CF patients, B. cepacia complex is a rare but major concern due to its high virulence, morbidity and transmissibility (O'Malley, 2009; Brüssow, 2012). We tested the antimicrobial activity of cysteamine-tobramycin combinations in artificial sputum medium (Yang, et al., 2011) against 4 P. aeruginosa (PAO1, ATCC27853, DSMZ1128 and DSMZ1299) and 2 B. cepacia complex strains (NCTC10743 and NCTC10744).

[5] = system: Pseudomonas aeruginosa Pa01; experiment: MIC determination, strain Pa01; type: cell-based
Protocol: as §1
as §2, with “The MIC was obtained as the lowest concentration of antimicrobial showing total inhibition of bacterial growth.” left out
(§6) A number of compounds related in chemical structure to cysteamine were examined for antimicrobial activity; cystamine (dihydrochloride salt), taurine and 2,3-dimercaptosuccinic acid. Other compounds chemically related to cysteamine are known, but are toxic, and are therefore of no utility in a drug of this nature.

[6] = system: P. aeruginosa PAO1 biofilm; experiment: Minimum biofilm eradication concentration against established biofilm (FIG. 4); type: cell-based, Pseudomonas aeruginosa
[7] = system: Pseudomonas aeruginosa NH57388A; experiment: MIC determination, strain NH57388A; type: cell-based
Protocol: as §1
as §2, with “The MIC was obtained as the lowest concentration of antimicrobial showing total inhibition of bacterial growth.” left out
as §6

[8] = system: Pseudomonas aeruginosa Pa058; experiment: FIC index of combinations with conventional antibiotics, strain Pa058; type: cell-based; conditions: strain Pa058 (Col^R, Cip^R Tob^R), listed as Cysteamine (NM001)
Protocol: as §1, §2, §3, §4, §5

[9] = system: Pseudomonas aeruginosa Pa01; experiment: FIC index of combinations with conventional antibiotics, strain Pa01; type: cell-based; conditions: strain Pa01 (Col^R), listed as Cysteamine (NM001)
Protocol: as §1, §2, §3, §4, §5

[10] = system: Pseudomonas planktonic cells; experiment: Antibacterial activity of Tobramycin and cysteamine, separately and combined (FIG. 1); type: cell-based; conditions: FIG. 1b
Protocol: FIG. 1A and FIG. 1B: provide a comparison of the antibacterial activity of Tobramycin and cysteamine (NM001) against Pseudomonas planktonic cells when administered separately, and in combined form. NM001 reduces the MIC of Tobramycin against planktonic cells by at least 4-fold (FIG. 1b)
as §2

[11] = system: Pseudomonas aeruginosa Pa14; experiment: FIC index of combinations with conventional antibiotics, strain Pa14; type: cell-based; conditions: strain Pa14 (Col^R)
Protocol: as §1, §2, §3, §4, §5

[12] = in combination with Ciprofloxacin

Structure (SMILES): NCCS [Cysteamine, cysteamine]
- post-antimicrobial effect (delayed bacterial growth, reduced metabolic activity of the biofilm) [1]: significant PAE
- effect on activity of conventional antibiotics [2]: restores antibiotic activity
- FICI (Additive) Cip [3, 12]: 0.53 and 0.56 and 0.52 and 0.75
- FICI (Additive) Col ([3]; in combination with Colistin): 0.62 and 0.53 and 0.56 and 0.5
- FICI (Synergy) Col ([3]; in combination with Colistin): 0.31 and 0.38
- FICI (Additive) Gent ([3]; in combination with Gentamicin): 0.5 and 0.63 and 0.51
- FICI (Synergy) Gent ([3]; in combination with Gentamicin): 0.38
- FICI (Additive) Tob ([3]; in combination with Tobramycin): 0.56 and 0.51 and 0.52
- FICI (Synergy) Tob ([3]; in combination with Tobramycin): 0.38 and 0.31 and 0.25
- MIC [4]: 250 to 500 mg/L
- MIC50 [5]: 250 to 500 mg/L (≈ 3.24 to 6.48 mM)
- MIC90 [5]: 500 mg/L (≈ 6.48 mM)
- MIC ([5]; read-out: MIC100): 667 mg/L (≈ 8.64 mM)
- minimum biofilm eradication concentration (MBEC), agent alone [6]: 1000 µg/mL
- MIC50 [7]: 250 mg/L (≈ 3.24 mM)
- MIC90 [7]: 250 to 500 mg/L (≈ 3.24 to 6.48 mM)
- MIC ([7]; read-out: MIC100): 667 mg/L (≈ 8.64 mM)
- FICI (Additive) Cip [8, 12]: 0.53 and 0.56
- FICI (Additive) Col ([8]; in combination with Colistin): 0.75 and 0.53 and 0.56 and 0.5
- FICI (Additive) Gent ([8]; in combination with Gentamicin): 0.56 and 0.5 and 0.75
- FICI (Additive) Tob ([8]; in combination with Tobramycin): 0.52 and 0.56 and 0.5 and 0.53 and 0.63 and 0.75
- FICI (Additive) Col ([9]; in combination with Colistin): 0.53 and 0.56
- FICI (Synergy) Col ([9]; in combination with Colistin): 0.38 and 0.31 and 0.25
- FICI (Additive) Gent ([9]; in combination with Gentamicin): 0.5 and 0.53 and 0.63
- FICI (Synergy) Gent ([9]; in combination with Gentamicin): 0.38
- FICI (Additive) Tob ([9]; in combination with Tobramycin): 0.63
- FICI (Synergy) Tob ([9]; in combination with Tobramycin): 0.31 and 0.28 and 0.25
- reduction of the MIC of Tobramycin by NM001 [10]: at least 4 fold
- FICI (Additive) Cip ([11]; in combination with Ciprofloxacin, listed as Cysteamine (NM001)): 0.75 and 0.63
- FICI (Synergy) Col ([11]; in combination with Colistin): 0.38
- FICI (Additive) Col ([11]; in combination with Colistin, listed as Cysteamine (NM001)): 0.53 and 0.5 and 0.56
- FICI (Additive) Gent ([11]; in combination with Gentamicin, listed as Cysteamine (NM001)): 0.63 and 0.5 and 0.75
- FICI (Additive) Tob ([11]; in combination with Tobramycin, listed as Cysteamine (NM001)): 0.56 and 0.75 and 0.5

Source: US11020414B2, “Antimicrobial compositions with cysteamine” (priority 2010, dated 2021)
